According to publication PMC5584065 (Biochemical pharmacology, 2015):
Read-outs that look alike come from different tables or passages of the source.

Experiments:
Human CYP2E1 = conditions: cited from earlier work
CYP2E1 [1] = target: T1, CYP2E1 (Homo sapiens, UniProt P05181); conditions: read-out: Ks; styrene, free enzyme; cited from earlier work
CYP2E1 [2] = target: T1, CYP2E1; assay: biochemical
CYP2E1 [3] = target: T1, CYP2E1; assay: in vitro; conditions: recombinant enzyme, pH 7.4
CYP2E1 [4] = target: T1, CYP2E1; assay: Impact of styrene on acetaminophen oxidation by recombinant CYP2E1; conditions: 100 µM acetaminophen, styrene 50 to 500 µM

T1 sequence (P05181 whole entry): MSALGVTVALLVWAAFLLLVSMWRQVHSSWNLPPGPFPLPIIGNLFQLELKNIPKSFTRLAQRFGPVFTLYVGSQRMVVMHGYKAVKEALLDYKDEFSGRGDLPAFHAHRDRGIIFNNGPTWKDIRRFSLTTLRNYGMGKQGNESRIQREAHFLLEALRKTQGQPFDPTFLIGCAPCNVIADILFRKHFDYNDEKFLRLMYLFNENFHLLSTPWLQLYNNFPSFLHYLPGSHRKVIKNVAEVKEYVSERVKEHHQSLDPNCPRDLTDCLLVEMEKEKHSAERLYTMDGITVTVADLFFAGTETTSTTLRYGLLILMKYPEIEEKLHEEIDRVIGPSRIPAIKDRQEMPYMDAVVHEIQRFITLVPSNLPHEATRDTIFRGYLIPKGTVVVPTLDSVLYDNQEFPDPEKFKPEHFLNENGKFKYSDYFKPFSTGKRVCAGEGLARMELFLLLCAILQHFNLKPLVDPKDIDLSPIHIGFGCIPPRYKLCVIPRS

## CC(=O)Nc1ccc(O)cc1 [acetaminophen]
Human CYP2E1; CYP2E1 expressed in HepG2 cells or purified CYP2E1 in a reconstituted system
  Km: ~600 µM
Human CYP2E1; reconstituted CYP2E1 system
  Km: 1300 µM

## C=Cc1ccccc1 [styrene]
CYP2E1 [1]
  Kd: 375 µM
CYP2E1 [2]
  IC50: 22 µM
CYP2E1 [3]
  activity: 19%
CYP2E1 [4]
  remaining acetaminophen oxidation activity versus prediction: greater than would be predicted by simple competition
